Measured values taken from publication PMC9151520 (Archives of Toxicology, 2022).
Where a name gives a salt, the structure may show the parent alone. Read-outs that look alike come from different tables or passages of the source.

Key:
[1] = test system: p53 signaling (p53RE-bla HCT-116 cells); assay: cells; conditions: Homo sapiens
[2] = test system: p53 signaling (p53RE-bla HCT-116 cells); assay: cells; assay type: cell-based; conditions: Homo sapiens; for EC50: HCT-116; for Emax: HCT-116, read-out: efficacy
[3] = test system: p53 signaling (p53RE-bla HCT-116 cells)
[4] = test system: p53 signaling (p53RE-bla HCT-116 cells); assay: cells; assay type: cell-based; conditions: for Emax: HCT-116, read-out: efficacy
[5] = test system: p53 signaling (p53RE-bla HCT-116 cells); assay: cells; assay type: cell-based
[6] = test system: p53RE-bla HCT-116 cells
[7] = test system: p53 signaling (p53RE-bla HCT-116 cells); assay: cells; conditions: Homo sapiens; remark: listed apart in the source
[8] = test system: p53 signaling (p53RE-bla HCT-116 cells); remark: listed apart in the source
[9] = HCT-116, read-out: p53 activation EC50
[10] = HCT-116, read-out: p53 activation efficacy
[11] = HCT-116, read-out: p53 activation EC50, HLM
[12] = read-out: p53 activation EC50, RLM
[13] = HCT-116, read-out: p53 activation EC50, RLM
[14] = Homo sapiens, HCT-116, read-out: p53 activation EC50, No MS
[15] = read-out: p53 activation EC50, No MS
[16] = HCT-116, read-out: p53 activation efficacy, primary screening

Row | Compound | EC50 [2] [µM] | EC50 ([4]; Homo sapiens, HCT-116, 0.5 h) [µM] | EC50 ([7]; HCT-116) [µM] | Emax ([7]; HCT-116, read-out: efficacy) [%] | EC50 [1, 11] [µM] | p53 activation EC50, HLM [3] | p53 activation EC50, No MS [5] | p53 activation Efficacy, No MS [5] | Viability EC50, HLM [6] | Viability EC50, No MS [6] | Viability EC50, RLM [6] | Viability Efficacy, HLM [6] | Viability Efficacy, No MS [6] | Viability Efficacy, RLM [6] | other results
1 | CCOP(=O)(OCC)Oc1cc(C)nc(C(C)C)n1 [Diazoxon] | 13.9 | 3.83 | 6.57 | 43.6 | – | – | – | – | – | – | – | – | – | – | EC50 [1, 9]: 20.2 µM; Emax [1, 10]: 39.6%; Emax [2]: 61.3%; p53 activation EC50 [3]: inactive; Emax ([4]; Homo sapiens): 58.5%; p53 activation EC50 [5]: inactive; p53 activation efficacy [5]: inactive; Viability EC50 [6]: inactive; Viability efficacy [6]: inactive
2 | CNC(=O)O/N=C(\SC)C(=O)N(C)C [Oxamyl] | 22.4 | 14.4 | 14.2 | 58.1 | 2.96 | inactive | inactive | inactive | inactive | inactive | inactive | inactive | inactive | inactive | EC50 [8, 12]: 10.9 µM; EC50 [7, 13]: 14.1 µM
3 | Oc1c(Cl)cc(Cl)c(Cl)c1Cl [2,3,4,6-Tetrachlorophenol] | – | – | – | – | 34.9 | inactive | – | 39.2893% | inactive | inactive | inactive | inactive | inactive | inactive | p53 activation EC50, RLM [8]: inactive; EC50 [5, 14]: 17.7 µM; Emax ([5]; Homo sapiens, HCT-116, read-out: p53 activation Efficacy, No MS): 37.3%; EC50 [5, 15]: 34.6 µM; EC50 [7, 13]: 44.8 µM
4 | Nc1nc(Cl)nc2c1ncn2[C@H]1C[C@H](O)[C@@H](CO)O1 [Cladribine] | – | – | – | – | – | – | – | – | – | – | – | – | – | – | Emax [1, 10]: 47.1%; p53 activation efficacy [8]: 33.0267; p53 activation EC50 [3]: inactive; p53 activation efficacy [5]: 91.229; Emax ([5]; Homo sapiens, HCT-116, read-out: p53 activation efficacy): 81%; EC50 ([5]; read-out: p53 activation EC50): 0.665 µM; Viability EC50 [6]: inactive; Viability efficacy [6]: inactive; Emax [7, 10]: 45.7%
5 | CNC(=O)Oc1ccccc1C(C)C [Isoprocarb] | – | – | – | – | 8.87 | inactive | inactive | inactive | inactive | inactive | inactive | inactive | inactive | inactive | EC50 [8, 12]: 12.5 µM; EC50 [7, 13]: 12 µM
6 | COP(=S)(OC)Oc1ccc(SC)c(C)c1 [Fenthion] | 8.86 | 1.28 | 7.81 | 39 | 1.1 | inactive | inactive | inactive | inactive | inactive | inactive | inactive | inactive | inactive | EC50 [8, 12]: 7.2 µM; EC50 [7, 13]: 8.91 µM
7 | CCOP(=S)(OCC)OC(Cl)C(Cl)(Cl)Cl (stereo not shown) [Chlorethoxyfos] | 7.79 | 0.75 | 11.4 | 35.9 | – | – | – | – | – | – | – | – | – | – | Emax [1, 10]: 44%; p53 activation efficacy [8]: 53.0303; EC50 ([8]; read-out: p53 activation EC50): 11.7 µM; p53 activation EC50 [3]: inactive; p53 activation EC50 [5]: inactive; p53 activation efficacy [5]: inactive; Viability EC50 [6]: inactive; Viability efficacy [6]: inactive; Emax [7, 10]: 43.1%
8 | CCOP(=S)(OCC)SCn1nnc2ccccc2c1=O [Azinphos-ethyl] | 2.16 | 22.8 | 2.17 | 47.5 | 1.98 | inactive | inactive | inactive | inactive | inactive | inactive | inactive | inactive | inactive | –
9 | CNP(=O)(OC)Oc1ccc(C(C)(C)C)cc1Cl (stereo not shown) [Crufomate] | 3.29 | 0.33 | 4.36 | 66.6 | 4.17 | inactive | inactive | inactive | inactive | inactive | inactive | inactive | inactive | inactive | –
10 | Nc1nc(N)c2nc(-c3ccccc3)c(N)nc2n1 [Triamterene] | – | – | – | – | 16.4 | inactive | – | – | inactive | inactive | inactive | inactive | inactive | inactive | EC50 [8, 12]: 42.4 µM; EC50 [5, 14]: 28.7 µM; EC50 [5, 15]: 27.6 µM; EC50 [7, 13]: 30.5 µM
11 | CCOP(=S)(OCC)OP(=S)(OCC)OCC [Sulfotepp] | 16.6 | – | 14.3 | 37.4 | 21.6 | inactive | inactive | inactive | inactive | inactive | inactive | inactive | inactive | inactive | Emax [2]: 42.1%; EC50 [4]: Inactive
12 | COP(=S)(OC)SCN1C(=O)c2ccccc2C1=O [Phosmet] | 8.04 | 18.7 | 11.6 | 52.6 | 7.57 | inactive | inactive | inactive | inactive | inactive | inactive | inactive | inactive | inactive | Emax [2]: 49%; Emax ([4]; Homo sapiens): 48.2%
13 | CCCCSP(=O)(SCCCC)SCCCC [Tribufos] | 1.32 | 0.74 | 2.16 | 44.2 | – | – | – | – | – | – | – | – | – | – | Emax [1, 16]: 34.6%; p53 activation EC50, cherry pick confirmation [3]: inactive; p53 activation efficacy, cherry pick confirmation [3]: inactive; p53 activation EC50, cherry pick confirmation [5]: inactive; p53 activation EC50, primary screening [5]: inactive; p53 activation efficacy, cherry pick confirmation [5]: inactive; p53 activation efficacy, primary screening [5]: inactive; Viability EC50, cherry pick confirmation [6]: inactive; Viability EC50, primary screening [6]: inactive; Viability efficacy, cherry pick confirmation [6]: inactive; Viability efficacy, primary screening [6]: inactive; EC50 ([7]; HCT-116, read-out: p53 activation EC50, cherry pick confirmation): 1.86 µM; Emax ([7]; HCT-116, read-out: p53 activation efficacy, cherry pick confirmation): 41.6%; Emax [7, 16]: 36%
14 | CCOP(=S)(OCC)SC(CCl)N1C(=O)c2ccccc2C1=O (stereo not shown) [Dialifor] | – | – | – | – | – | – | – | – | – | – | – | – | – | – | EC50 [1, 9]: 3.03 µM; p53 activation efficacy [8]: 52.0707; p53 activation EC50 [3]: inactive; p53 activation EC50 [5]: inactive; p53 activation efficacy [5]: inactive; Viability EC50 [6]: inactive; Viability efficacy [6]: inactive
15 | Nc1ccn([C@@H]2O[C@H](CO)[C@@H](O)[C@@H]2O)c(=O)n1 [Cytarabine hydrochloride] | – | – | – | – | – | – | – | – | – | – | – | – | – | – | EC50 [1, 9]: 3.49 µM; p53 activation EC50 [8]: inactive; p53 activation efficacy [8]: inactive; p53 activation EC50 [3]: inactive; p53 activation efficacy [5]: 74.252; Viability EC50 [6]: inactive; Viability efficacy [6]: inactive
16 | Cl[C@H]1[C@H](Cl)[C@@H](Cl)[C@H](Cl)[C@@H](Cl)[C@@H]1Cl [beta-Hexachlorocyclohexane] | – | – | – | – | 47.3 | inactive | inactive | inactive | inactive | inactive | inactive | inactive | inactive | inactive | p53 activation EC50, RLM [8]: inactive; p53 activation Efficacy, RLM [8]: inactive
17 | N=C(N)NC(=O)c1nc(Cl)c(N)nc1N [Amiloride hydrochloride] | – | – | – | – | 38.7 | inactive | inactive | inactive | inactive | inactive | inactive | inactive | inactive | inactive | p53 activation EC50, RLM [8]: inactive; p53 activation Efficacy, RLM [8]: inactive
